From US4370339A, “Method for treating inflammatory conditions” (Abbott Laboratories, priority 1981, dated 1983) come the findings set out here.

Data set [1] concerns reverse passive Arthus reaction. As to the kind of experiment: reverse passive Arthus reaction in the rat. To be noted: oral, 100 mg/kg of body weight; lesion measured 4 h after anti-B.S.A.; groups of 4 rats. The class given is in vivo, rat (male Sprague-Dawley). The source says:
The anti-inflammatory activity of the compounds used in the invention was established using the reverse passive Arthus reaction in the rat as described by G. W. Carter and R. A. Krause in Federation Proceedings, Vol. 35, page 774, 1976. Although the carrageenin rat paw edema test (Winter et al., Proc. Soc. Exp. Biol. Med., 111, 554, 1962) can also be used to establish anti-inflammatory activity, the Arthus reaction, unlike carrageenin induced edema, is a well-characterized immune reaction which bears close resemblance to the pathogenesis of rheumatoid arthritis.
The Arthus reaction represents one of the oldest and best studied models of immunological injury. It is produced by the injection of antigen locally into a hyperimmunized animal or by the injection of a small amount of antibody into the skin of an animal that has just previously been given a large amount of soluble antigen intravenously. In both cases, the antigen and antibody become deposited in the walls of small venules. Plasma complement is rapidly bound and activated. […]
Thirty minutes after administration of the drug, each animal is injected intradermally with 0.05 ml of 1.44% anti-B.S.A. into the dorsal skin. […] Two perpendicular diameters of each lesion are measured. […]

Data set [2] relates to carrageenin pleurisy. Briefly: modification of the carrageenin pleurisy assay. Format: in vivo. The text has this: Also tested for comparison was phenylbutazone, a compound known to have anti-inflammatory activity.
For data set [3], the system named is rats. As to the kind of experiment: toxicity, fatality ratio in rats. Format: in vivo. Particulars: for Fatality Ratio: rats. The procedure:
The lesser toxicity of the 1-alkaryl derivatives is illustrated by the data of Table 3, which gives the fatality ratio in rats when the compounds were administered in the indicated dosages.

Structures are written as SMILES.

Consider `O=C1CCN(Cc2ccccc2)N1` [1-benzyl-3-pyrazolidinone, reference compound], for which the “% Inhibition Of Lesion” value in data set [1] came out at 28%.

For `CCCCC1C(=O)N(c2ccccc2)N(c2ccccc2)C1=O` [phenylbutazone, reference compound], in data set [2] (100 mg/kg), the “% Inhibition Cells” value came out at 13% and the “% Inhibition Volume Exudate” value was 59%.

With `NC1=NN(Cc2ccccc2)CC1` [1-benzyl-3-amino-2-pyrazoline], in data set [2] (120 mg/kg), the “% Inhibition Cells” value is 55% and the “% Inhibition Volume Exudate” value is listed as 76%. Further, the “Fatality Ratio” value in data set [3] (512 mg/kg) was 0/10. In addition, the “toxicity relative to 1-aryl derivatives, in words” value in data set [3] (compared with 1-aryl derivatives of 3-amino-2-pyrazoline) is on record as “markedly less toxic”. Besides, the “% Inhibition Of Lesion” value in data set [1] amounted to 57%.

`NC1=NN(c2cccc(C(F)(F)F)c2)CC1` [1-(m-trifluoromethylphenyl)-3-amino-2-pyrazoline, reference compound]: in data set [3] (285 mg/kg), the “Fatality Ratio” value is 8/10.
